Measured values: article PMC8234462, “Novel Cyclophilin Inhibitor Decreases Cell Proliferation and Tumor Growth in Models of Hepatocellular Carcinoma” (Cancers, 2021)

Columns and labels:
PHA-stimulated PBMCs = assay: Cytotoxicity, CellTiter Glo; type: cell-based; conditions: Homo sapiens, PBMC, 72 h, 3 days of treatment, read-out: IC50 (50% reduction in cell viability)
Method: (§1) The evaluation of the off-target effects of NV651 was performed by ImQuest BioSciences Inc. (Frederick, MD, USA) by analyzing the cytotoxicity in a panel of primary cells. NV651 was evaluated at a concentration of 30 µM and five serial half-logarithmic dilutions in triplicate. The positive control compounds for each cell type were purchased from Sigma-Aldrich (St. Louis, MO, USA) and were as follows:
(§2) Human unstimulated or PHA-P-stimulated PBMCs were isolated by Ficoll hypaque centrifugation from whole blood and resuspended in a fresh tissue culture medium containing IL-2. Cells were seeded at a concentration of 5 × 10^5 /mL in a 96-well plate followed by NV651 treatment in triplicate for 3 days. Cell viability was measured with CellTiter Glo (Promega, Madison, WI, USA).
(§3) CellTiter Glo was performed to evaluate cell viability. CellTiter Glo Luminescent Cell Viability Assay (Promega, Madison, WI, USA) was performed according to the manufacturer’s instructions.

Unstimulated PBMCs = assay: Cytotoxicity, CellTiter Glo; type: cell-based; conditions: Homo sapiens, PBMC, 72 h, 3 days of treatment, read-out: IC50 (50% reduction in cell viability)
Method: as §1, §2, §3

CC(=O)CCC1C(=O)NC(C(C)C)C(=O)NC(Cc2cc(O)cc(F)c2)C(=O)N2CCCC(N2)C(=O)OC(C(C)=CC=CC(=O)OC(C)(C)C)CC=CC=CC(O)C(C)C1O (centres unmarked) [NV651]
IC50 (PHA-stimulated PBMCs): > 30 µM | IC50 (Unstimulated PBMCs): > 30 µM
